{
  "source": "paper PMC5218480",
  "about": "(PLoS ONE, 2017)",
  "system": "MV-4-11 cells",
  "test": "Gene expression microarray analysis (Affymetrix PrimeView) and GSEA",
  "assay_type": "cell-based, human",
  "parameters": "RFU PODN (11730768_x_at) / Fold change /veh PODN (11730768_x_at) / RFU LINC00158 (11744669_a_at) / Fold change /veh LINC00158 (11744669_a_at) / RFU DUSP10 (11751237_a_at) / Fold change /veh DUSP10 (11751237_a_at) / RFU ID3 (11757404_x_at) / Fold change /veh ID3 (11757404_x_at) / RFU PLEKHG5 (11737974_s_at) / Fold change /veh PLEKHG5 (11737974_s_at) / RFU LRRC4B (11730491_at) / Fold change /veh LRRC4B (11730491_at) / RFU GIMAP4 (11747438_a_at) / Fold change /veh GIMAP4 (11747438_a_at) / RFU KRT8 (11758183_x_at) / Fold change /veh KRT8 (11758183_x_at) / RFU CNN1 (11734310_a_at) / Fold change /veh CNN1 (11734310_a_at) / RFU VPS37D (11726825_at) / Fold change /veh VPS37D (11726825_at) / RFU C10orf10 (11716522_x_at) / Fold change /veh C10orf10 (11716522_x_at) / RFU KIR2DL2 /// KIR2DL4 /// KIR2DL5A /// KIR2DL5B /// KIR2DS1 /// KIR2DS2 /// KIR2DS3 /// KIR2DS4 /// KIR3DL3 /// KIR3DL3 /// KIR3DS1 (11738374_at) / Fold change /veh KIR2DL2 /// KIR2DL4 /// KIR2DL5A /// KIR2DL5B /// KIR2DS1 /// KIR2DS2 /// KIR2DS3 /// KIR2DS4 /// KIR3DL3 /// KIR3DL3 /// KIR3DS1 (11738374_at) / RFU C1QL1 (11718748_at) / Fold change /veh C1QL1 (11718748_at) / RFU TMPRSS4 (11747572_a_at) / Fold change /veh TMPRSS4 (11747572_a_at) / RFU HAMP (11756126_x_at) / Fold change /veh HAMP (11756126_x_at) / RFU RNFT2 (11725882_a_at) / Fold change /veh RNFT2 (11725882_a_at) / RFU NR4A2 (11747474_a_at) / Fold change /veh NR4A2 (11747474_a_at) / RFU ABCC12 (11746883_a_at) / Fold change /veh ABCC12 (11746883_a_at) / RFU TMEM136 (11760407_x_at) / Fold change /veh TMEM136 (11760407_x_at) / RFU CLDN22 /// WWC2 (11732394_at) / Fold change /veh CLDN22 /// WWC2 (11732394_at) / RFU HLA-DPB1 (11760878_x_at) / Fold change /veh HLA-DPB1 (11760878_x_at) / RFU SPINT1 (11716480_a_at) / Fold change /veh SPINT1 (11716480_a_at) / RFU GAP43 (11754022_s_at) / Fold change /veh GAP43 (11754022_s_at) / RFU A4GNT (11735810_at) / Fold change /veh A4GNT (11735810_at) / RFU PRB3 (11715151_x_at) / Fold change /veh PRB3 (11715151_x_at) / RFU TUBB4B (11761932_at) / Fold change /veh TUBB4B (11761932_at) / RFU CAPN14 (11732068_a_at) / Fold change /veh CAPN14 (11732068_a_at) / RFU TMCC2 (11721928_a_at) / Fold change /veh TMCC2 (11721928_a_at) / RFU IRGQ (11745062_a_at) / Fold change /veh IRGQ (11745062_a_at) / RFU FAM174B (11720279_a_at) / Fold change /veh FAM174B (11720279_a_at) / RFU TMPRSS4 (11748680_a_at) / Fold change /veh TMPRSS4 (11748680_a_at) / RFU FAM212B (11763350_a_at) / Fold change /veh FAM212B (11763350_a_at) / RFU PLEKHG5 (11743358_a_at) / Fold change /veh PLEKHG5 (11743358_a_at) / RFU ZSCAN30 (11745921_a_at) / Fold change /veh ZSCAN30 (11745921_a_at) / RFU CMKLR1 (11741424_a_at) / Fold change /veh CMKLR1 (11741424_a_at) / RFU LOC101060620 /// MAPK8IP1 (11723275_at) / Fold change /veh LOC101060620 /// MAPK8IP1 (11723275_at) / RFU SPTSSB (11747773_x_at) / Fold change /veh SPTSSB (11747773_x_at) / RFU PRSS12 (11739890_at) / Fold change /veh PRSS12 (11739890_at) / RFU BIN1 (11741810_x_at) / Fold change /veh BIN1 (11741810_x_at) / RFU WNT11 (11732464_a_at) / Fold change /veh WNT11 (11732464_a_at) / RFU C10orf10 (11716521_a_at) / Fold change /veh C10orf10 (11716521_a_at) / RFU C5orf56 (11738089_at) / Fold change /veh C5orf56 (11738089_at) / RFU CYB561 (11721691_x_at) / Fold change /veh CYB561 (11721691_x_at) / RFU ANKRD19P (11752326_a_at) / Fold change /veh ANKRD19P (11752326_a_at) / RFU OR2T12 /// OR2T33 /// OR2T8 (11738714_s_at) / Fold change /veh OR2T12 /// OR2T33 /// OR2T8 (11738714_s_at) / RFU VCAN (11748164_a_at) / Fold change /veh VCAN (11748164_a_at) / RFU JSRP1 (11732532_at) / Fold change /veh JSRP1 (11732532_at) / RFU KRTAP10-11 (11738290_x_at) / Fold change /veh KRTAP10-11 (11738290_x_at) / RFU MYO3A (11730013_a_at) / Fold change /veh MYO3A (11730013_a_at) / RFU EBF3 (11725865_a_at) / Fold change /veh EBF3 (11725865_a_at) / RFU CAMK2N1 (11719241_x_at) / Fold change /veh CAMK2N1 (11719241_x_at) / RFU C5orf56 (11738088_a_at) / Fold change /veh C5orf56 (11738088_a_at) / RFU OLFML3 (11715873_a_at) / Fold change /veh OLFML3 (11715873_a_at) / RFU LOC100653217 /// NTM (11731650_a_at) / Fold change /veh LOC100653217 /// NTM (11731650_a_at) / RFU MAPK11 (11762145_a_at) / Fold change /veh MAPK11 (11762145_a_at) / RFU FIZ1 (11724087_x_at) / Fold change /veh FIZ1 (11724087_x_at) / RFU OASL (11726364_x_at) / Fold change /veh OASL (11726364_x_at) / RFU SOX15 (11748057_x_at) / Fold change /veh SOX15 (11748057_x_at) / RFU CD79A (11719716_a_at) / Fold change /veh CD79A (11719716_a_at) / RFU HIST1H1D (11736915_at) / Fold change /veh HIST1H1D (11736915_at) / RFU CASKIN2 (11723855_a_at) / Fold change /veh CASKIN2 (11723855_a_at) / RFU LOC730098 (11760151_x_at) / Fold change /veh LOC730098 (11760151_x_at) / RFU OR4N2 (11742367_at) / Fold change /veh OR4N2 (11742367_at) / RFU PRRT2 (11749266_a_at) / Fold change /veh PRRT2 (11749266_a_at) / RFU SNX32 (11753110_a_at) / Fold change /veh SNX32 (11753110_a_at) / RFU CDHR5 (11726645_a_at) / Fold change /veh CDHR5 (11726645_a_at) / RFU RCAN1 (11760418_a_at) / Fold change /veh RCAN1 (11760418_a_at) / RFU FAM167A (11723789_a_at) / Fold change /veh FAM167A (11723789_a_at) / RFU FAM26E (11764081_at) / Fold change /veh FAM26E (11764081_at) / RFU ISYNA1 (11749810_s_at) / Fold change /veh ISYNA1 (11749810_s_at) / RFU ACY1 (11761880_at) / Fold change /veh ACY1 (11761880_at) / RFU 11764098_at / Fold change /veh 11764098_at / RFU SAMD14 (11745864_x_at) / Fold change /veh SAMD14 (11745864_x_at) / RFU NPB (11741838_a_at) / Fold change /veh NPB (11741838_a_at) / RFU TMPRSS6 (11731388_a_at) / Fold change /veh TMPRSS6 (11731388_a_at) / RFU KRTAP10-2 (11738614_at) / Fold change /veh KRTAP10-2 (11738614_at) / RFU ARHGAP8 /// PRR5-ARHGAP8 (11727945_x_at) / Fold change /veh ARHGAP8 /// PRR5-ARHGAP8 (11727945_x_at) / RFU KRTAP5-7 /// NADSYN1 (11734609_at) / Fold change /veh KRTAP5-7 /// NADSYN1 (11734609_at) / RFU RASL12 (11751679_a_at) / Fold change /veh RASL12 (11751679_a_at) / RFU CDKN2B (11736163_a_at) / Fold change /veh CDKN2B (11736163_a_at) / RFU PRF1 (11729649_at) / Fold change /veh PRF1 (11729649_at) / RFU, ZNF638 /// ZNF638-IT1 / Fold change vs veh, ZNF638 /// ZNF638-IT1 / RFU, PANK3 / Fold change vs veh, PANK3 / RFU, SH3YL1 / Fold change vs veh, SH3YL1 / RFU, ZEB2 / Fold change vs veh, ZEB2 / RFU, NRIP1 / Fold change vs veh, NRIP1 / RFU, PTTG1IP / Fold change vs veh, PTTG1IP / RFU, CAPN2 / Fold change vs veh, CAPN2 / RFU, MED14 / Fold change vs veh, MED14 / RFU, SNORA58 / Fold change vs veh, SNORA58 / RFU, C1orf63 / Fold change vs veh, C1orf63 / RFU, LRRFIP1 / Fold change vs veh, LRRFIP1 / RFU, NDUFAF7 / Fold change vs veh, NDUFAF7 / RFU, SLC12A2 / Fold change vs veh, SLC12A2 / RFU, IBTK / Fold change vs veh, IBTK / RFU, ESF1 / Fold change vs veh, ESF1 / Fold change vs veh, TMEM50B / RFU, TAOK1 / Fold change vs veh, TAOK1 / RFU, ACBD3 / Fold change vs veh, ACBD3 / RFU, TMA16 / Fold change vs veh, TMA16 / RFU, RWDD3 / Fold change vs veh, RWDD3 / RFU, BCAT1 / Fold change vs veh, BCAT1 / RFU, EDEM3 / Fold change vs veh, EDEM3 / RFU, TMEM33 / Fold change vs veh, TMEM33 / RFU, WDR75 / Fold change vs veh, WDR75 / RFU, AHCTF1 / Fold change vs veh, AHCTF1 / RFU, TFRC / Fold change vs veh, TFRC / RFU, ZDHHC17 / Fold change vs veh, ZDHHC17 / RFU, NOM1 / Fold change vs veh, NOM1 / RFU, ARL8B / Fold change vs veh, ARL8B / RFU, ZBTB11 / Fold change vs veh, ZBTB11 / RFU, TAMM41 / Fold change vs veh, TAMM41 / RFU, KIAA1704 /// LOC100996395 / Fold change vs veh, KIAA1704 /// LOC100996395 / RFU, ING1 / Fold change vs veh, ING1 / RFU, TRMT61B / Fold change vs veh, TRMT61B / RFU, FUBP3 / Fold change vs veh, FUBP3 / RFU, TP53 / Fold change vs veh, TP53 / RFU, TNKS2 / Fold change vs veh, TNKS2 / RFU, ZFP14 / Fold change vs veh, ZFP14 / RFU, ACTR2 / Fold change vs veh, ACTR2 / RFU, PPP3R1 / Fold change vs veh, PPP3R1 / RFU, PIK3R1 / Fold change vs veh, PIK3R1 / RFU, HNRNPA1 / Fold change vs veh, HNRNPA1 / RFU, RNF170 / Fold change vs veh, RNF170 / RFU, ZNF28 / Fold change vs veh, ZNF28 / RFU, RNGTT / Fold change vs veh, RNGTT / RFU, OGT / Fold change vs veh, OGT / RFU, BRD1 / Fold change vs veh, BRD1 / RFU, MARS / Fold change vs veh, MARS / RFU, ZNF655 / Fold change vs veh, ZNF655 / RFU, FAHD1 / Fold change vs veh, FAHD1 / RFU, BDP1 / Fold change vs veh, BDP1 / RFU, LRRCC1 / Fold change vs veh, LRRCC1 / RFU, ARID1A / Fold change vs veh, ARID1A / RFU, ZNF146 / Fold change vs veh, ZNF146 / RFU, ZNF330 / Fold change vs veh, ZNF330 / RFU, GPN3 / Fold change vs veh, GPN3 / RFU, C9orf123 / Fold change vs veh, C9orf123 / RFU, N4BP2L2 / Fold change vs veh, N4BP2L2 / RFU, ARFIP1 / Fold change vs veh, ARFIP1 / RFU, FAM179B / Fold change vs veh, FAM179B / RFU, BCL10 / Fold change vs veh, BCL10 / RFU, UHRF1BP1L / Fold change vs veh, UHRF1BP1L / RFU, BET1 / Fold change vs veh, BET1 / RFU, CNOT2 / Fold change vs veh, CNOT2 / RFU, ZNF268 / Fold change vs veh, ZNF268 / Fold change vs veh, ZNF507 / RFU, DGCR2 / Fold change vs veh, DGCR2 / RFU, WDSUB1 / Fold change vs veh, WDSUB1 / Fold change vs veh, HSP90B1 /// MIR3652 / RFU, ADSS / Fold change vs veh, ADSS / RFU, GK / Fold change vs veh, GK / RFU, ZNF148 / Fold change vs veh, ZNF148 / RFU, TAF9 / Fold change vs veh, TAF9 / RFU, SLC1A5 / Fold change vs veh, SLC1A5 / RFU, SLMO2 / Fold change vs veh, SLMO2 / RFU, ABCC4 / Fold change vs veh, ABCC4 / RFU, LOC101060439 /// RAP1B / Fold change vs veh, LOC101060439 /// RAP1B / RFU, RFX7 / Fold change vs veh, RFX7 / RFU, GTPBP10 / Fold change vs veh, GTPBP10 / RFU, CNEP1R1 / Fold change vs veh, CNEP1R1 / RFU, BIVM-ERCC5 /// ERCC5 / Fold change vs veh, BIVM-ERCC5 /// ERCC5 / RFU, ILF3 / Fold change vs veh, ILF3 / RFU 11762660_at / Fold change /veh 11762660_at / RFU VCAN (11757783_s_at) / Fold change /veh VCAN (11757783_s_at) / RFU DDX43 (11728927_at) / Fold change /veh DDX43 (11728927_at) / RFU KRT8 (11758188_x_at) / Fold change /veh KRT8 (11758188_x_at) / RFU NKD1 (11759106_at) / Fold change /veh NKD1 (11759106_at) / RFU SRD5A1 (11742802_a_at) / Fold change /veh SRD5A1 (11742802_a_at) / RFU TPSAB1 /// TPSB2 (11721975_s_at) / Fold change /veh TPSAB1 /// TPSB2 (11721975_s_at) / RFU GSTM3 (11746129_a_at) / Fold change /veh GSTM3 (11746129_a_at) / RFU IL23R (11737362_x_at) / Fold change /veh IL23R (11737362_x_at) / RFU TMEM51 (11727254_a_at) / Fold change /veh TMEM51 (11727254_a_at) / RFU PIWIL2 (11732686_x_at) / Fold change /veh PIWIL2 (11732686_x_at) / RFU ORM1 (11744905_x_at) / Fold change /veh ORM1 (11744905_x_at) / RFU CCDC152 (11743942_at) / Fold change /veh CCDC152 (11743942_at) / RFU ECM1 (11717891_a_at) / Fold change /veh ECM1 (11717891_a_at) / RFU IL23R (11748794_a_at) / Fold change /veh IL23R (11748794_a_at) / RFU TNFAIP8L3 (11732012_x_at) / Fold change /veh TNFAIP8L3 (11732012_x_at) / RFU MBOAT4 (11741988_at) / Fold change /veh MBOAT4 (11741988_at) / RFU 11764193_at / Fold change /veh 11764193_at / RFU TMEM53 (11763286_at) / Fold change /veh TMEM53 (11763286_at) / RFU MAGEB2 (11727129_at) / Fold change /veh MAGEB2 (11727129_at) / RFU TMEM200A (11744735_a_at) / Fold change /veh TMEM200A (11744735_a_at) / RFU CCDC152 (11751479_a_at) / Fold change /veh CCDC152 (11751479_a_at) / RFU FAM211A (11726209_a_at) / Fold change /veh FAM211A (11726209_a_at) / RFU RGS16 (11746705_a_at) / Fold change /veh RGS16 (11746705_a_at) / RFU VCAN (11755009_s_at) / Fold change /veh VCAN (11755009_s_at) / RFU RHOB (11743442_s_at) / Fold change /veh RHOB (11743442_s_at) / RFU RGS16 (11720943_a_at) / Fold change /veh RGS16 (11720943_a_at) / RFU RGS16 (11720944_at) / Fold change /veh RGS16 (11720944_at) / RFU, VPS4B / Fold change vs veh, VPS4B / RFU, CREB1 / Fold change vs veh, CREB1 / RFU, DNAJC13 / Fold change vs veh, DNAJC13 / RFU, GNAQ / Fold change vs veh, GNAQ / RFU, CDK5R1 / Fold change vs veh, CDK5R1 / RFU, ZRANB3 / Fold change vs veh, ZRANB3 / RFU, CUL4A / Fold change vs veh, CUL4A / RFU, CCNY / Fold change vs veh, CCNY / RFU, UFL1 / Fold change vs veh, UFL1 / RFU, COG3 / Fold change vs veh, COG3 / RFU, DIAPH2 / Fold change vs veh, DIAPH2 / RFU, SKA2 / Fold change vs veh, SKA2 / RFU, AFF3 / Fold change vs veh, AFF3 / RFU, LMF1 / Fold change vs veh, LMF1 / RFU, IPO11 / Fold change vs veh, IPO11 / RFU, DFFB / Fold change vs veh, DFFB / RFU, FOXP1 / Fold change vs veh, FOXP1 / RFU, CARD8 / Fold change vs veh, CARD8 / RFU, STRN3 / Fold change vs veh, STRN3 / RFU, ADK / Fold change vs veh, ADK / RFU, RASSF2 / Fold change vs veh, RASSF2 / RFU, WIPF1 / Fold change vs veh, WIPF1 / RFU, LARP1B / Fold change vs veh, LARP1B / RFU, RASA1 / Fold change vs veh, RASA1 / RFU, RB1 / Fold change vs veh, RB1 / RFU, PPFIA1 / Fold change vs veh, PPFIA1 / RFU, MAT2A / Fold change vs veh, MAT2A / RFU, CCT5 / Fold change vs veh, CCT5 / RFU, WDR92 / Fold change vs veh, WDR92 / RFU, CUX1 / Fold change vs veh, CUX1 / RFU, TTC7A / Fold change vs veh, TTC7A / RFU, TMEM135 / Fold change vs veh, TMEM135 / RFU, DEPTOR / Fold change vs veh, DEPTOR / RFU, CPM / Fold change vs veh, CPM / RFU, DNAJB6 / Fold change vs veh, DNAJB6 / RFU, CACNA2D3 / Fold change vs veh, CACNA2D3 / RFU, DTX4 / Fold change vs veh, DTX4 / RFU, TFCP2 / Fold change vs veh, TFCP2 / RFU, GMCL1 /// GMCL1P1 / Fold change vs veh, GMCL1 /// GMCL1P1 / RFU, AEBP2 / Fold change vs veh, AEBP2 / RFU, SNHG1 /// SNORD22 /// SNORD25 /// SNORD26 /// SNORD27 /// SNORD28 /// SNORD29 /// SNORD31 / Fold change vs veh, SNHG1 /// SNORD22 /// SNORD25 /// SNORD26 /// SNORD27 /// SNORD28 /// SNORD29 /// SNORD31 / Fold change (Aza/veh), C12orf56 (ProbeSet 11735607_a_at) / Fold change (ACY-1035/veh), C12orf56 (ProbeSet 11735607_a_at) / Fold change (Aza/veh), FGFR1OP (ProbeSet 11751329_s_at) / Fold change (ACY-1035/veh), FGFR1OP (ProbeSet 11751329_s_at) / Fold change (Aza/veh), VPS36 (ProbeSet 11739960_a_at) / Fold change (ACY-1035/veh), VPS36 (ProbeSet 11739960_a_at) / RFU SYPL1 (11715823_x_at) / Fold change /veh SYPL1 (11715823_x_at) / RFU IGFBP7 (11715501_s_at) / Fold change /veh IGFBP7 (11715501_s_at) / RFU REEP3 (11722064_at) / Fold change /veh REEP3 (11722064_at) / RFU IGLL1 (11728026_x_at) / Fold change /veh IGLL1 (11728026_x_at): dose or concentration left out as unconfirmed",
  "settings": "MV-4-11 cells, 48 hours",
  "data": [
    {"smiles": "Nc1ncn([C@@H]2O[C@H](CO)[C@@H](O)[C@H]2O)c(=O)n1", "note": "[azacitidine]", "values": [
      {"measurement": "RFU SPTSSB (11747773_x_at)", "result": 34.53, "unit": "RFU"}
    ]}
  ]
}
